# Values of other authors, collected in patent US6635757B1, “Process for preparing cyclodextrin inclusion complex” (Vittal Mallya Scientific Research Foundation, priority 2001, dated 2003).
structure (smiles),measurement,setting,value
C/C=C(\C)C(=O)O[C@H]1C[C@@H](OC(C)=O)[C@@]2(C(=O)OC)CO[C@H]3[C@@H](O)[C@@](C)([C@]45O[C@@]4(C)[C@@H]4C[C@H]5O[C@@H]5OC=C[C@@]54O)[C@H]4[C@]1(CO[C@]4(O)C(=O)OC)[C@@H]32 [Azadirachtin-A],Activity compared with NSKE (containing azadirachtin-A<70%),insects; azadirachtin-A of 99% purity,not as active as NSKE
C/C=C(\C)C(=O)O[C@H]1C[C@@H](OC(C)=O)[C@@]2(C(=O)OC)CO[C@H]3[C@@H](O)[C@@](C)([C@]45O[C@@]4(C)[C@H]4C[C@@H]5O[C@@H]5OC=C[C@@]54O)[C@H]4[C@]1(CO[C@]4(O)C(=O)OC)[C@@H]32 [Azadirachtin],Physiological concentration required to elicit growth retardation,insects; varies from species to species,1-100 ppm
same,Sensitivity to sunlight,,extremely sensitive
